Earlier results as cited in patent US8791095B2, “Steroidal CYP17 inhibitors/antiandrogens” (Tokai Pharmaceuticals, Inc., priority 2009, dated 2014).

Legend:
[1] = tested on: LAPC4 human prostate tumor xenograft; conditions: for inhibition of growth of LAPC4 xenograft (in words): in vivo
human CYP17 enzyme = biological target: T1, human CYP17 enzyme (Homo sapiens, UniProt P05093); conditions: read-out: IC50, inhibition of human CYP17 enzyme
T1 sequence (P05093 1-508): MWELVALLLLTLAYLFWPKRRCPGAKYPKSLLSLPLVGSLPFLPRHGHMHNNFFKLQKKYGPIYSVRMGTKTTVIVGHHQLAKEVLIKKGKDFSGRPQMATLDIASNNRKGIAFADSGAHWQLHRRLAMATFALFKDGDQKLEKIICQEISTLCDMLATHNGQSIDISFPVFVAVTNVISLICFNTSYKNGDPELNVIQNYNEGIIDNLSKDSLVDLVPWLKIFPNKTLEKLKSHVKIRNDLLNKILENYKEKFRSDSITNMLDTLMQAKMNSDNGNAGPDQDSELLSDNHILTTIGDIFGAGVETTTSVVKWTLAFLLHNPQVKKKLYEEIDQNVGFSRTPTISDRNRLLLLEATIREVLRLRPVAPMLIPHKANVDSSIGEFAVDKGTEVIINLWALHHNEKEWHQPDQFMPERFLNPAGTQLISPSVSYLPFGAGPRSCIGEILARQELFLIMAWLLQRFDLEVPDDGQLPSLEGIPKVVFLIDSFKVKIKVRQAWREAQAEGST

Row | SMILES | peak plasma level (mice, s.c. 50 mg/kg) [ng/mL] | terminal half-life in plasma (mice, s.c. 50 mg/kg) [min] | detectability in plasma at 8 hours (mice, s.c. 50 mg/kg) | inhibition of growth of LAPC4 xenograft (in words) [1] | IC50 (human CYP17 enzyme) [nM] | conversion into a metabolite (metabolite tentatively identified as 17-(1H-benzimidazol-1-yl)androsta-3-one) | efficacy compared with castration ([1]; 50 mg/kg, twice daily) | reduction in the mean final tumor volume compared with controls ([1]; 50 mg/kg, twice daily, P=0.00065) [%]
1 | C[C@]12CCC(=O)C=C1CCC1C2CC[C@]2(C)C(n3cnc4ccccc43)=CCC12 (stereo partly shown) [Compound 2, 17-(1H-benzimidazole-1-yl)androsta-4,16-diene-3-one] | 5.15 | 39.93 | neither was detectable | ineffective |  |  |  | 
2 | CC12CCC(O)CC1=CCC1C2CCC2(C)C(c3cncnc3)=CCC12 (stereo not drawn) [Compound 3, 3β-hydroxy-17-(5′-pyrimidyl)androsta-5,16-diene] |  |  |  |  | 500 |  |  | 
3 | C[C@]12CC[C@H](O)CC1=CC[C@@H]1[C@@H]2CC[C@]2(C)C(n3cnc4ccccc43)=CC[C@@H]12 [Compound 1, 3β-hydroxy-17-(1H-benzimidazole-1-yl)androsta-5,16-diene] | 16.82 |  | neither was detectable | very effective | 50 | rapidly converted into a metabolite | significantly more effective than castration | 93.8
4 | C[C@]12CC[C@H](O)CC1=CC[C@@H]1[C@@H]2CC[C@]2(C)C(c3cccnc3)=CC[C@@H]12 [abiraterone, 3β-hydroxy-17-(pyrid-3-yl)androsta-5,16-diene] |  |  |  |  | 3 to 6 |  |  | 
